The values below come from patent US20250270190A1, “KIT INHIBITORS” (BLUEPRINT MEDICINES CORPORATION, priority 2022, published 2025).

The IC50 is the concentration that gives 50% inhibition.

The experiment deals with T1, c-kit autophosphorylation (Phospho c-Kit Tyr721) in HMC 1.1 (exon 11/13) cells, V654A (Homo sapiens, UniProt P10721, V560G/V654A).
T1 construct: endogenous in cells; host or cells: HMC 1.1 (exon 11/13) cells
T1 sequence (P10721 26-976 V560G/V654A): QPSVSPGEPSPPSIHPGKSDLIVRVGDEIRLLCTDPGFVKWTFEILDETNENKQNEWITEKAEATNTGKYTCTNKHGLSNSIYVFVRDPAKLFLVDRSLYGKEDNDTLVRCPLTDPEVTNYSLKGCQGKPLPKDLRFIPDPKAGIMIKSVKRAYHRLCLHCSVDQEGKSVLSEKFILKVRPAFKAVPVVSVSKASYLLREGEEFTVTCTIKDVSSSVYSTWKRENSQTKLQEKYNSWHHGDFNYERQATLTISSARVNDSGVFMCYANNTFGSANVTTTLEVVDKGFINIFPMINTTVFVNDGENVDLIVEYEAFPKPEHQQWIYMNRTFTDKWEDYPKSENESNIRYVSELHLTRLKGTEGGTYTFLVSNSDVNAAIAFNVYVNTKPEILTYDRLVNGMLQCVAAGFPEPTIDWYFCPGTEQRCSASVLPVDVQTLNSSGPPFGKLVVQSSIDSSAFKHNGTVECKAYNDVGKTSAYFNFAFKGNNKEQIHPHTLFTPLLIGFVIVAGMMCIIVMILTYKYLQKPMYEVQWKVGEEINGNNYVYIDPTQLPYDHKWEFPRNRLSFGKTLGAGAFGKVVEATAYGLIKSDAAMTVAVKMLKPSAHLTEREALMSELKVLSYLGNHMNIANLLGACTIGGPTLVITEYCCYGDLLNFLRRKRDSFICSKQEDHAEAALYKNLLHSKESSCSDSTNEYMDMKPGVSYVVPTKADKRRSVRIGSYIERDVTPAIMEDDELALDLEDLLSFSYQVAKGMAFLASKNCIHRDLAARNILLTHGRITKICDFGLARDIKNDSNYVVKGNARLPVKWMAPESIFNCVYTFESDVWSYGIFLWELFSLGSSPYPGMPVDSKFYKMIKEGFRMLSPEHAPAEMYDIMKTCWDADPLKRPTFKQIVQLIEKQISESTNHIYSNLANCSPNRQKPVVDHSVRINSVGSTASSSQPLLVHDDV
Description: pKIT Meso Scale Discovery (MSD) assay, inhibition of autophosphorylation of KIT, HMC1.1_V654A. Particulars: Table 1, cell line not named for Table 1, b1056 names pKIT HMC1.1_V654A, read-out: Code (IC50 for inhibition of autophosphorylation of KIT, pKIT MSD assay). The format is cell-based. Summed up: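 HMC1.1 cells were serum-starved for 4 h in serum-free, iron-free, phenol red-free IMDM, then treated with compound in dose-response for 90 min at 37 °C. Staurosporine and DMSO served as controls. Lysates were analysed by MSD electrochemiluminescence immunoassay for phospho-c-Kit Tyr721, and % inhibition of autophosphorylation was derived.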
As for `CCOc1cc(Nc2cc(N)nc(C(F)F)n2)ncc1-c1cnn(C2CN(C)C2)c1` [Compound 141, 2-(difluoromethyl)-N4-(4-ethoxy-5-(1-(1-methylazetidin-3-yl)-1H-pyrazol-4-yl)pyridin-2-yl)pyrimidine-4,6-diamine], the IC50 is less than 10 nM.
As for `Nc1cc(Nc2cc(NC3CC3)c(C(=O)NCc3cocn3)cn2)nc(C(F)F)n1` [Compound 134, 6-((6-amino-2-(difluoromethyl)pyrimidin-4-yl)amino)-4-(cyclopropylamino)-N-(oxazol-4-ylmethyl)nicotinamide], the figure is less than 10 nM; as for `CN(C)CCn1cc(-c2cnc(Nc3cc(N)nc(C(F)F)n3)cc2OC(F)(F)F)cn1` [Compound 194, 2-(difluoromethyl)-N4-(5-(1-(2-(dimethylamino)ethyl)-1H-pyrazol-4-yl)-4-(trifluoromethoxy)pyridin-2-yl)pyrimidine-4,6-diamine], less than 10 nM; as for `COc1cc(Nc2cc(N)nc(C(F)F)n2)ncc1-c1cnn(C[C@@H]2CCN2C)c1` (single isomer, unassigned) [Compound 139, (S)-2-(difluoromethyl)-N4-(4-methoxy-5-(1-((1-methylazetidin-2-yl)methyl)-1H-pyrazol-4-yl)pyridin-2-yl)pyrimidine-4,6-diamine or (R)-2-(difluoromethyl)-N4-(4-methoxy-5-(1-((1-methylazetidin-2-yl)methyl)-1H-pyrazol-4-yl)pyridin-2-yl)pyrimidine-4,6-diamine], less than 10 nM.
Take `COc1cc(Nc2cc(N)nc(C(F)F)n2)ncc1-c1cnn(C(C)(C)CO)c1` [Compound 122, 2-(4-(6-((6-amino-2-(difluoromethyl)pyrimidin-4-yl)amino)-4-methoxypyridin-3-yl)-1H-pyrazol-1-yl)-2-methylpropan-1-ol]: the IC50 was less than 10 nM.
The result for `CCCNc1cc(Nc2cc(N)nc(C(F)F)n2)ncc1C(=O)NC` [Compound 26, 6-((6-amino-2-(difluoromethyl)pyrimidin-4-yl)amino)-N-methyl-4-(propylamino)nicotinamide] reads less than 10 nM; that for `CN[C@@H](C)Cn1cc(-c2cnc(Nc3cc(N)nc(C(F)F)n3)cc2OC)cn1` (single isomer, unassigned) [Compound 117, (S)-2-(difluoromethyl)-N4-(4-methoxy-5-(1-(2-(methylamino)propyl)-1H-pyrazol-4-yl)pyridin-2-yl)pyrimidine-4,6-diamine or (R)-2-(difluoromethyl)-N4-(4-methoxy-5-(1-(2-(methylamino)propyl)-1H-pyrazol-4-yl)pyridin-2-yl)pyrimidine-4,6-diamine], less than 10 nM; that for `COc1cc(Nc2cc(N)nc(CF)n2)ncc1-c1cnn(C2CNC2)c1` [Compound 50, N4-(5-(1-(azetidin-3-yl)-1H-pyrazol-4-yl)-4-methoxypyridin-2-yl)-2-(fluoromethyl)pyrimidine-4,6-diamine], more than 40 nM.
Turning to `COc1cc(Nc2cc(N)nc(C(F)F)n2)ncc1-c1cnn(CC(C)O)c1` (centres unmarked) [Compound 85, 1-(4-(6-((6-amino-2-(difluoromethyl)pyrimidin-4-yl)amino)-4-methoxypyridin-3-yl)-1H-pyrazol-1-yl)propan-2-ol], the IC50 fell in the range of 10 to 40 nM.
As for `CNC(=O)c1cnc(Nc2cc(N)nc(CF)n2)cc1NC` [Compound 1, 6-((6-amino-2-(fluoromethyl)pyrimidin-4-yl)amino)-N-methyl-4-(methylamino)nicotinamide], the figure is 10 to 40 nM; as for `CN(C)CCn1cc(-c2cnc(Nc3cc(N)nc(C(F)F)n3)cc2OC2CC2)cn1` [Compound 171, N4-(4-cyclopropoxy-5-(1-(2-(dimethylamino)ethyl)-1H-pyrazol-4-yl)pyridin-2-yl)-2-(difluoromethyl)pyrimidine-4,6-diamine], less than 10 nM; as for `CN[C@@H](C)Cn1cc(-c2cnc(Nc3cc(N)nc(C(F)F)n3)cc2OC(F)(F)F)cn1` (single isomer, unassigned) [Compound 195, (S)-2-(difluoromethyl)-N4-(5-(1-(2-(methylamino)propyl)-1H-pyrazol-4-yl)-4-(trifluoromethoxy)pyridin-2-yl)pyrimidine-4,6-diamine or (R)-2-(difluoromethyl)-N4-(5-(1-(2-(methylamino)propyl)-1H-pyrazol-4-yl)-4-(trifluoromethoxy)pyridin-2-yl)pyrimidine-4,6-diamine], less than 10 nM.
Consider `COc1cc(Nc2cc(N)nc(C(F)F)n2)ncc1-c1cnn(C2CCN(C)C2)c1` (centres unmarked) [Compound 140, 2-(difluoromethyl)-N4-(4-methoxy-5-(1-(1-methylpyrrolidin-3-yl)-1H-pyrazol-4-yl)pyridin-2-yl)pyrimidine-4,6-diamine], for which the IC50 was less than 10 nM.
As for `Nc1cc(Nc2cc(NC3CC3)c(C(=O)NC34CC(CO)(C3)C4)cn2)nc(C(F)F)n1` [Compound 174, 6-((6-amino-2-(difluoromethyl)pyrimidin-4-yl)amino)-4-(cyclopropylamino)-N-(3-(hydroxymethyl)bicyclo[1.1.1]pentan-1-yl)nicotinamide], the figure is less than 10 nM; as for `CNc1cc(Nc2cc(N)nc(C(F)F)n2)ncc1C(=O)NC12CC(CO)(C1)C2` [Compound 121, 6-((6-amino-2-(difluoromethyl)pyrimidin-4-yl)amino)-N-(3-(hydroxymethyl)bicyclo[1.1.1]pentan-1-yl)-4-(methylamino)nicotinamide], 10 to 40 nM.
The result for `C[C@H](CF)Nc1cc(Nc2cc(N)nc(C(F)F)n2)ncc1C(=O)NC1CC1` [Compound 91, (R)-6-((6-amino-2-(difluoromethyl)pyrimidin-4-yl)amino)-N-cyclopropyl-4-((1-fluoropropan-2-yl)amino)nicotinamide] reads less than 10 nM.
On to `Nc1cc(Nc2cc(OC3CC3)c(-c3cnn(C4CNC4)c3)cn2)nc(C(F)F)n1` [Compound 130, N4-(5-(1-(azetidin-3-yl)-1H-pyrazol-4-yl)-4-cyclopropoxypyridin-2-yl)-2-(difluoromethyl)pyrimidine-4,6-diamine], for which the IC50 is 10 to 40 nM.
`CCNC(=O)c1cnc(Nc2cc(N)nc(C(F)F)n2)cc1NC` [Compound 13, 6-((6-amino-2-(difluoromethyl)pyrimidin-4-yl)amino)-N-ethyl-4-(methylamino)nicotinamide]: the IC50 was 10 to 40 nM.
Regarding `COc1cc(Nc2cc(N)nc(C(F)F)n2)ncc1-c1cnn(C2CCNC2)c1` (centres unmarked) [Compound 97, 2-(difluoromethyl)-N4-(4-methoxy-5-(1-(pyrrolidin-3-yl)-1H-pyrazol-4-yl)pyridin-2-yl)pyrimidine-4,6-diamine], the IC50 was in the range of 10 to 40 nM.
On to `CC(CF)Oc1cc(Nc2cc(N)nc(C(F)F)n2)ncc1-c1cnn(CC(C)(C)O)c1` (centres unmarked) [Compound 190, 1-(4-(6-((6-amino-2-(difluoromethyl)pyrimidin-4-yl)amino)-4-((1-fluoropropan-2-yl)oxy)pyridin-3-yl)-1H-pyrazol-1-yl)-2-methylpropan-2-ol], for which the 50% inhibitory concentration (IC50) was less than 10 nM.
On to `CNC(=O)c1cnc(Nc2cc(N)nc(C(F)F)n2)cc1NC1COC1` [Compound 42, 6-((6-amino-2-(difluoromethyl)pyrimidin-4-yl)amino)-N-methyl-4-(oxetan-3-ylamino)nicotinamide], for which the IC50 fell in the range of 10 to 40 nM.
The result for `[2H]C([2H])([2H])NC(=O)c1cnc(Nc2cc(N)nc(C(F)F)n2)cc1NC` [Compound 6, 6-((6-amino-2-(difluoromethyl)pyrimidin-4-yl)amino)-N-(methyl-d3)-4-(methylamino)nicotinamide] reads 10 to 40 nM; that for `CNC(=O)c1cnc(Nc2cc(N)nc(CF)n2)cc1N[C@H]1CCOC1` [Compound 36, (S)-6-((6-amino-2-(fluoromethyl)pyrimidin-4-yl)amino)-N-methyl-4-((tetrahydrofuran-3-yl)amino)nicotinamide], more than 40 nM.
`CC(C)NC(=O)c1cnc(Nc2cc(N)nc(C(F)F)n2)cc1NC1CC1` [Compound 63, 6-((6-amino-2-(difluoromethyl)pyrimidin-4-yl)amino)-4-(cyclopropylamino)-N-isopropylnicotinamide]: the IC50 was less than 10 nM.
In the case of `CNC(=O)c1cnc(Nc2cc(N)nc(CF)n2)cc1NC1CCC1` [Compound 14, 6-((6-amino-2-(fluoromethyl)pyrimidin-4-yl)amino)-4-(cyclobutylamino)-N-methylnicotinamide], the IC50 was less than 10 nM.
The result for `Nc1cc(Nc2cc(OC(F)F)c(-c3cnn(C4CC4)c3)cn2)nc(C(F)F)n1` [Compound 127, N4-(5-(1-cyclopropyl-1H-pyrazol-4-yl)-4-(difluoromethoxy)pyridin-2-yl)-2-(difluoromethyl)pyrimidine-4,6-diamine] reads less than 10 nM; that for `Cn1cc(-c2cnc(Nc3cc(N)nc(C(F)F)n3)cc2OC2CC2)cn1` [Compound 53, N4-(4-cyclopropoxy-5-(1-methyl-1H-pyrazol-4-yl)pyridin-2-yl)-2-(difluoromethyl)pyrimidine-4,6-diamine], less than 10 nM; that for `COc1cc(Nc2cc(N)nc(C(F)F)n2)ncc1-c1cnn([C@@H]2CCNC2)c1` (single isomer, unassigned) [Compound 100, (R)-2-(difluoromethyl)-N4-(4-methoxy-5-(1-(pyrrolidin-3-yl)-1H-pyrazol-4-yl)pyridin-2-yl)pyrimidine-4,6-diamine or (S)-2-(difluoromethyl)-N4-(4-methoxy-5-(1-(pyrrolidin-3-yl)-1H-pyrazol-4-yl)pyridin-2-yl)pyrimidine-4,6-diamine], 10 to 40 nM.
As for `CCOc1cc(Nc2cc(N)nc(C(F)F)n2)ncc1-c1cnn(CC(C)(C)O)c1` [Compound 152, 1-(4-(6-((6-amino-2-(difluoromethyl)pyrimidin-4-yl)amino)-4-ethoxypyridin-3-yl)-1H-pyrazol-1-yl)-2-methylpropan-2-ol], the figure is less than 10 nM.
